Results reported in US20250135006A1, “AMPHIPHILIC TLR7/8 ADJUVANTS AND USES THEREOF” (Pfizer Inc., priority 2023, published 2025).

What was measured:
[1] = biological target: T1, human toll like receptor 7 (hTLR7) (Homo sapiens, UniProt Q9NYK1); assay: hTLR7 in-vitro functional assay (HEK-Blue hTLR7 SEAP reporter); type: cell-based; conditions: HEK-Blue hTLR7 cells, overnight incubation
T1 construct: host or cells: HEK293 (HEK-Blue hTLR7)
T1 sequence (Q9NYK1 27-1049): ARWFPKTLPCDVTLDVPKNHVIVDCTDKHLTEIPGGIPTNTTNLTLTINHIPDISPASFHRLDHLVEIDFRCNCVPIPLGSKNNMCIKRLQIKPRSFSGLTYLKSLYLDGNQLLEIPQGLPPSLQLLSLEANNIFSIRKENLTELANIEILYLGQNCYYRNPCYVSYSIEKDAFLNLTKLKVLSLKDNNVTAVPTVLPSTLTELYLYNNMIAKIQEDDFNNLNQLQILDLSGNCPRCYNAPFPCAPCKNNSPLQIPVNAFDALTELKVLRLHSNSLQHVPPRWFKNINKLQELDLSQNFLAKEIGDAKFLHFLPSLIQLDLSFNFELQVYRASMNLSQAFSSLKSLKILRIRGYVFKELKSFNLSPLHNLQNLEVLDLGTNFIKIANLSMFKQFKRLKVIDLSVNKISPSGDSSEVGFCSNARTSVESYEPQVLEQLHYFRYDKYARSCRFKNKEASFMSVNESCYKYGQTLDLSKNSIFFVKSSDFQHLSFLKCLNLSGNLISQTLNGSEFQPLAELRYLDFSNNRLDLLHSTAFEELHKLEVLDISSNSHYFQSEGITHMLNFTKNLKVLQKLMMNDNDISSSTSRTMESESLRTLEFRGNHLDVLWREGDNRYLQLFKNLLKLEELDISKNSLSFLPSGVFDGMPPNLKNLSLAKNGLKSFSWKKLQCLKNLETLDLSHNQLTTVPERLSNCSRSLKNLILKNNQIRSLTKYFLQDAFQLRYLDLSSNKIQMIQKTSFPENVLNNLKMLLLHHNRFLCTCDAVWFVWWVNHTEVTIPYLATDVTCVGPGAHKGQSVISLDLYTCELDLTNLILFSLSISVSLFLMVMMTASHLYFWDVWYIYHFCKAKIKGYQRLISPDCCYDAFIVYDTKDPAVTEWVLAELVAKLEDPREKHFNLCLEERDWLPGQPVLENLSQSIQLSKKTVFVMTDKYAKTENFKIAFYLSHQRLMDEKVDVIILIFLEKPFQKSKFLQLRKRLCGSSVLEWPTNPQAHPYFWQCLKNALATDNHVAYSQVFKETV

[2] = biological target: T2, human toll like receptor 8 (hTLR8) (Homo sapiens, UniProt Q9NR97); assay: hTLR8 in-vitro functional assay (HEK-Blue hTLR8 SEAP reporter); type: cell-based; conditions: HEK-Blue hTLR8 cells, overnight incubation
T2 construct: host or cells: HEK293 (HEK-Blue hTLR8)
T2 sequence (Q9NR97 27-1041): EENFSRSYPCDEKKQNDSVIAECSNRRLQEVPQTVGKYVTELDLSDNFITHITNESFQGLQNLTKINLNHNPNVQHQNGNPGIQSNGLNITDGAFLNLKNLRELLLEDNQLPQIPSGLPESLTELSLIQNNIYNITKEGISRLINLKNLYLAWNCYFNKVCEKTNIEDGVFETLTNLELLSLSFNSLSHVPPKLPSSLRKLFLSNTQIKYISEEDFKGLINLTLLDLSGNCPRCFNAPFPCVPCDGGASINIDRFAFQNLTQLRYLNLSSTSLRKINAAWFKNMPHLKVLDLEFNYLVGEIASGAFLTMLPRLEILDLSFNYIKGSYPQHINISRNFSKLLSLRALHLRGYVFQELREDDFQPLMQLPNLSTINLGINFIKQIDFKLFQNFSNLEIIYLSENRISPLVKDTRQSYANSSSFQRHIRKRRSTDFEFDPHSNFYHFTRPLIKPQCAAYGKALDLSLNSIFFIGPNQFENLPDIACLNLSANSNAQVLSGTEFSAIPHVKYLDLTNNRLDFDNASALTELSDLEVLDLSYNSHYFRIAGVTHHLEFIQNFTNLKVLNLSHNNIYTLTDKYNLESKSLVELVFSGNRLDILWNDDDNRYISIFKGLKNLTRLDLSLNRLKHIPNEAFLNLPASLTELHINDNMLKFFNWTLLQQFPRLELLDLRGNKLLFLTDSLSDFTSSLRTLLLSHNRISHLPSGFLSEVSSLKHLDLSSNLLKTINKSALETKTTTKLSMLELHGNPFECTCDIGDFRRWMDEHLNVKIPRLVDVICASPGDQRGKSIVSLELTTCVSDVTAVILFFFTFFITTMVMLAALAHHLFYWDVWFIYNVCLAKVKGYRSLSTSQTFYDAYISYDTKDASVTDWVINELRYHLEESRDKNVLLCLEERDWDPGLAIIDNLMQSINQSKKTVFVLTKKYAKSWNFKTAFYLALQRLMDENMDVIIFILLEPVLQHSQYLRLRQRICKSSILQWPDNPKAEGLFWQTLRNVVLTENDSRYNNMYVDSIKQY

EC50 [1] [µM]	EC50 [2] [µM]	SMILES
0.072	2.3	CCOCc1nc2c(N)nc3cc(CCCN4CCN(C(=O)CCOCCOCCOCCOCCOCCOCCOCCOCCOCCOCCOCCOCCOCCOCCOCCOCCOCCOCCOCCOCCOCCOCCOCCOCCNC(=O)CCOCCOCCOCCOCCNC(=O)O[C@H]5CC[C@@]6(C)C(=CC[C@H]7[C@@H]8CC[C@H]([C@H](C)CCCC(C)C)[C@@]8(C)CC[C@@H]76)C5)CC4)ccc3c2n1CC(C)(CO)CO [Compound 5, (3beta)-cholest-5-en-3-yl {91-[4-(3-{4-amino-2-(ethoxymethyl)-1-[3-hydroxy-2-(hydroxymethyl)-2-methylpropyl]-1H-imidazo[4,5-c]quinolin-7-yl}propyl)piperazin-1-yl]-15,91-dioxo-3,6,9,12,19,22,25,28,31,34,37,40,43,46,49,52,55,58,61,64,67,70,73,76,79,82,85,88-octacosaoxa-16-azahennonacont-1-yl}carbamate]
0.053	0.339	CCCCc1nc2c(N)nc3cc(CCCN4CCN(C(=O)CCOCCOCCOCCOCCOCCOCCOCCOCCOCCOCCOCCOCCOCCOCCOCCOCCOCCOCCOCCOCCOCCOCCOCCOCCOCCOCCOCCOCCOCCOCCOCCOCCOCCOCCOCCOCCNC(=O)CCOCCOCCOCCOCCNC(=O)O[C@H]5CC[C@@]6(C)C(=CC[C@H]7[C@@H]8CC[C@H]([C@H](C)CCCC(C)C)[C@@]8(C)CC[C@@H]76)C5)CC4)ccc3c2n1CC(C)(CO)CO [Compound 3, (3beta)-cholest-5-en-3-yl {127-[4-(3-{4-amino-2-butyl-1-[3-hydroxy-2-(hydroxymethyl)-2-methylpropyl]-1H-imidazo[4,5-c]quinolin-7-yl}propyl)piperazin-1-yl]-15,127-dioxo-3,6,9,12,19,22,25,28,31,34,37,40,43,46,49,52,55,58,61,64,67,70,73,76,79,82,85,88,91,94,97,100,103,106,109,112,115,118,121,124-tetracontaoxa-16-azaheptacosahect-1-yl}carbamate]
0.078	5.08	CCCCc1nc2c(N)nc3cc(CCCN4CCN(C(=O)CCOCCOCCOCCOCCOCCOCCOCCOCCOCCOCCOCCOCCNC(=O)CCOCCOCCOCCOCCNC(=O)O[C@H]5CC[C@@]6(C)C(=CC[C@H]7[C@@H]8CC[C@H]([C@H](C)CCCC(C)C)[C@@]8(C)CC[C@@H]76)C5)CC4)ccc3c2n1CC(C)(CO)CO [Compound 6, (3beta,20R)-cholest-5-en-3-yl {55-[4-(3-{4-amino-2-butyl-1-[3-hydroxy-2-(hydroxymethyl)-2-methylpropyl]-1H-imidazo[4,5-c]quinolin-7-yl}propyl)piperazin-1-yl]-15,55-dioxo-3,6,9,12,19,22,25,28,31,34,37,40,43,46,49,52-hexadecaoxa-16-azapentapentacont-1-yl}carbamate]
0.186	9.91	CCCCc1nc2c(N)nc3cc(CCCN4CCN(CCCOCCNC(=O)O[C@H]5CC[C@@]6(C)C(=CC[C@H]7[C@@H]8CC[C@H]([C@H](C)CCCC(C)C)[C@@]8(C)CC[C@@H]76)C5)CC4)ccc3c2n1CC(C)(CO)CO [Compound 10, (3beta,20R)-cholest-5-en-3-yl (2-{3-[4-(3-{4-amino-2-butyl-1-[3-hydroxy-2-(hydroxymethyl)-2-methylpropyl]-1H-imidazo[4,5-c]quinolin-7-yl}propyl)piperazin-1-yl]propoxy}ethyl)carbamate]
0.223	3.33	CCOCc1nc2c(N)nc3cc(CCCN4CCN(C(=O)CCOCCOCCOCCOCCOCCOCCOCCOCCOCCOCCOCCOCCNC(=O)CCOCCOCCOCCOCCNC(=O)O[C@H]5CC[C@@]6(C)C(=CC[C@H]7[C@@H]8CC[C@H]([C@H](C)CCCC(C)C)[C@@]8(C)CC[C@@H]76)C5)CC4)ccc3c2n1CC(C)(CO)CO [Compound 13, (3beta,20R)-cholest-5-en-3-yl {55-[4-(3-{4-amino-2-(ethoxymethyl)-1-[3-hydroxy-2-(hydroxymethyl)-2-methylpropyl]-1H-imidazo[4,5-c]quinolin-7-yl}propyl)piperazin-1-yl]-15,55-dioxo-3,6,9,12,19,22,25,28,31,34,37,40,43,46,49,52-hexadecaoxa-16-azapentapentacont-1-yl}carbamate]
0.533	> 25	CCCCc1nc2c(N)nc3cc(CCCN4CCN(CCCOCCOCCOCCOCCOCCOCCOCCOCCOCCOCCOCCOCCNC(=O)O[C@H]5CC[C@@]6(C)C(=CC[C@H]7[C@@H]8CC[C@H]([C@H](C)CCCC(C)C)[C@@]8(C)CC[C@@H]76)C5)CC4)ccc3c2n1CC(C)(CO)CO [Compound 21, (20R)-cholest-5-en-3beta-yl {39-[4-(3-{4-amino-2-butyl-1-[3-hydroxy-2-(hydroxymethyl)-2-methylpropyl]-1H-imidazo[4,5-c]quinolin-7-yl}propyl)piperazin-1-yl]-3,6,9,12,15,18,21,24,27,30,33,36-dodecaoxanonatriacontan-1-yl}carbamate]
0.527	5.03	CCCCc1nc2c(N)nc3cc(CCCN4CCN(Cc5ccc(NC(=O)[C@H](CCCNC(N)=O)NC(=O)[C@@H](NC(=O)COCCOCCNC(=O)O[C@H]6CC[C@@]7(C)C(=CC[C@H]8[C@@H]9CC[C@H]([C@H](C)CCCC(C)C)[C@@]9(C)CC[C@@H]87)C6)C(C)C)cc5)CC4)ccc3c2n1CC(C)(CO)CO [Compound 29, (3beta)-cholest-5-en-3-yl ((6S,9S)-1-amino-6-((4-((4-(3-(4-amino-2-butyl-1-(3-hydroxy-2-(hydroxymethyl)-2-methylpropyl)-1H-imidazo[4,5-c]quinolin-7-yl)propyl)piperazin-1-yl)methyl)phenyl)carbamoyl)-9-isopropyl-1,8,11-trioxo-13,16-dioxa-2,7,10-triazaoctadecan-18-yl)carbamate]
0.236	22.6	CCCCc1nc2c(N)nc3cc(CCCN4CCN(CCCOCCOCCOCCOCCOCCOCCOCCOCCOCCOCCOCCOCCOCCOCCOCCOCCNC(=O)O[C@H]5CC[C@@]6(C)C(=CC[C@H]7[C@@H]8CC[C@H]([C@H](C)CCCC(C)C)[C@@]8(C)CC[C@@H]76)C5)CC4)ccc3c2n1CC(C)(CO)CO [Compound 14, (3beta,20R)-cholest-5-en-3-yl {51-[4-(3-{4-amino-2-butyl-1-[3-hydroxy-2-(hydroxymethyl)-2-methylpropyl]-1H-imidazo[4,5-c]quinolin-7-yl}propyl)piperazin-1-yl]-3,6,9,12,15,18,21,24,27,30,33,36,39,42,45,48-hexadecaoxahenpentacont-1-yl}carbamate]
